Molecules are shown by their SMILES. Bounds are passed on as bounds.

The test system of this assay is A375 melanoma cells (B-Raf V600E mutation). In words: A375 (A375_P-ERK) cell activity / cell growth inhibition assay. The assay is classed as cell-based, human. Conditions: Homo sapiens, A-375; A375 cells (text: A375_P-ERK).
In turn, `O=C(c1c(F)ccc(NS(=O)(=O)N2CCCC2)c1F)c1c[nH]c2ncc(-c3ccnc(C4CC4)c3)cc12` [P-0295, N-[3-[5-(2-cyclopropyl-4-pyridyl)-1H-pyrrolo[2,3-b]pyridine-3-carbonyl]-2,4-difluoro-phenyl]pyrrolidine-1-sulfonamide] returned a concentration for half-maximal inhibition (IC50) of less than 1 µM.
The result for `CCN(C)S(=O)(=O)Nc1cccc(C(=O)c2c[nH]c3ncc(C4CCC4)cc23)c1F` [P-0297, 5-cyclobutyl-3-[3-[[ethyl(methyl)sulfamoyl]amino]-2-fluoro-benzoyl]-1H-pyrrolo[2,3-b]pyridine] reads greater than 1 µM.
`CCN(C)S(=O)(=O)Nc1cccc(C(=O)c2c[nH]c3ncc(C4CC4)cc23)c1F` [P-0298, 5-cyclopropyl-3-[3-[[ethyl(methyl)sulfamoyl]amino]-2-fluoro-benzoyl]-1H-pyrrolo[2,3-b]pyridine] returned a 50% inhibitory concentration (IC50) greater than 1 µM.
The result for `Nc1cc(-c2cnc3[nH]cc(C(=O)c4cccc(NS(=O)(=O)N5CCCC5)c4F)c3c2)ncn1` [P-0299, N-[3-[5-(6-aminopyrimidin-4-yl)-1H-pyrrolo[2,3-b]pyridine-3-carbonyl]-2-fluoro-phenyl]pyrrolidine-1-sulfonamide] reads greater than 1 µM; that for `CCN(C)S(=O)(=O)Nc1ccc(F)c(C(=O)c2c[nH]c3ncc(-c4ccc(C(F)(F)F)cc4)cc23)c1F` [P-0301, 3-[3-[[ethyl(methyl)sulfamoyl]amino]-2,6-difluoro-benzoyl]-5-[4-(trifluoromethyl)phenyl]-1H-pyrrolo[2,3-b]pyridine], less than 1 µM.
The result for `CCN(C)S(=O)(=O)Nc1ccc(F)c(C(=O)c2c[nH]c3ncc(-c4ccc(N5CCCC5)cc4)cc23)c1F` [P-0303, 3-[3-[[ethyl(methyl)sulfamoyl]amino]-2,6-difluoro-benzoyl]-5-(4-pyrrolidin-1-ylphenyl)-1H-pyrrolo[2,3-b]pyridine] reads greater than 1 µM.
The result for `CCN(C)S(=O)(=O)Nc1ccc(F)c(C(=O)c2c[nH]c3ncc(-c4ccc(-c5nnc(C)o5)cc4)cc23)c1F` [P-0304, 2-[4-[3-[3-[[ethyl(methyl)sulfamoyl]amino]-2,6-difluoro-benzoyl]-1H-pyrrolo[2,3-b]pyridin-5-yl]phenyl]-5-methyl-1,3,4-oxadiazole] reads less than 1 µM; that for `CCN(C)S(=O)(=O)Nc1ccc(F)c(C(=O)c2c[nH]c3ncc(-c4ccc(-c5nnc(NC)s5)cc4)cc23)c1F` [P-0305, 2-[4-[3-[3-[[ethyl(methyl)sulfamoyl]amino]-2,6-difluoro-benzoyl]-1H-pyrrolo[2,3-b]pyridin-5-yl]phenyl]-5-(methylamino)-1,3,4-thiadiazole], less than 1 µM.
Compound `CCN(C)S(=O)(=O)Nc1ccc(F)c(C(=O)c2c[nH]c3ncc(-c4cncc(C(C)(C)O)c4)cc23)c1F` [P-0306, 3-[3-[[ethyl(methyl)sulfamoyl]amino]-2,6-difluoro-benzoyl]-5-[5-(1-hydroxy-1-methyl-ethyl)-3-pyridyl]-1H-pyrrolo[2,3-b]pyridine] gave an IC50 greater than 1 µM.
In the case of `CCN(C)S(=O)(=O)Nc1ccc(F)c(C(=O)c2c[nH]c3ncc(-c4ccc(C(C)(C)O)nc4)cc23)c1F` [P-0307, 3-[3-[[ethyl(methyl)sulfamoyl]amino]-2,6-difluoro-benzoyl]-5-[6-(1-hydroxy-1-methyl-ethyl)-3-pyridyl]-1H-pyrrolo[2,3-b]pyridine], the IC50 was less than 1 µM.
The result for `CCN(CC)c1ccc(-c2cnc3[nH]cc(C(=O)c4c(F)ccc(NS(=O)(=O)N(C)CC)c4F)c3c2)cc1` [P-0308, 5-[4-(diethylamino)phenyl]-3-[3-[[ethyl(methyl)sulfamoyl]amino]-2,6-difluoro-benzoyl]-1H-pyrrolo[2,3-b]pyridine] reads less than 1 µM.
In the case of `CCN(C)S(=O)(=O)Nc1ccc(F)c(C(=O)c2c[nH]c3ncc(-c4ccc5c(c4)NC(=O)C5)cc23)c1F` [P-0309, 3-[3-[[ethyl(methyl)sulfamoyl]amino]-2,6-difluoro-benzoyl]-5-(2-oxoindolin-6-yl)-1H-pyrrolo[2,3-b]pyridine], the half-maximal inhibitory concentration (IC50) is less than 1 µM.
The result for `CCN(C)S(=O)(=O)Nc1ccc(F)c(C(=O)c2c[nH]c3ncc(-c4ccc(-c5noc(C)n5)s4)cc23)c1F` [P-0310, 3-[5-[3-[3-[[ethyl(methyl)sulfamoyl]amino]-2,6-difluoro-benzoyl]-1H-pyrrolo[2,3-b]pyridin-5-yl]-2-thienyl]-5-methyl-1,2,4-oxadiazole] reads less than 1 µM; that for `CCN(C)S(=O)(=O)Nc1ccc(F)c(C(=O)c2c[nH]c3ncc(-c4ccc5nc(N)ncc5c4)cc23)c1F` [P-0311, 2-amino-6-[3-[3-[[ethyl(methyl)sulfamoyl]amino]-2,6-difluoro-benzoyl]-1H-pyrrolo[2,3-b]pyridin-5-yl]quinazoline], less than 1 µM.
In the case of `CCN(C)S(=O)(=O)Nc1ccc(F)c(C(=O)c2c[nH]c3ncc(-c4ccc5nc(N(C)C)ncc5c4)cc23)c1F` [P-0313, 2-(dimethylamino)-6-[3-[3-[[ethyl(methyl)sulfamoyl]amino]-2,6-difluoro-benzoyl]-1H-pyrrolo[2,3-b]pyridin-5-yl]quinazoline] it was less than 1 µM.
`CCN(C)S(=O)(=O)Nc1ccc(F)c(C(=O)c2c[nH]c3ncc(-c4ccc(C5(O)CC5)cc4)cc23)c1F` [P-0314, 3-[3-[[ethyl(methyl)sulfamoyl]amino]-2,6-difluoro-benzoyl]-5-[4-(1-hydroxycyclopropyl)phenyl]-1H-pyrrolo[2,3-b]pyridine] registered an IC50 of less than 1 µM.
Compound `CCN(C)S(=O)(=O)Nc1ccc(F)c(C(=O)c2c[nH]c3ncc(-c4cncs4)cc23)c1F` [P-0315, 5-[3-[3-[[ethyl(methyl)sulfamoyl]amino]-2,6-difluoro-benzoyl]-1H-pyrrolo[2,3-b]pyridin-5-yl]thiazole] yielded an IC50 of less than 1 µM.
In the case of `CCN(C)S(=O)(=O)Nc1ccc(F)c(C(=O)c2c[nH]c3ncc(-c4csc(C(C)(C)O)n4)cc23)c1F` [P-0316, 4-[3-[3-[[ethyl(methyl)sulfamoyl]amino]-2,6-difluoro-benzoyl]-1H-pyrrolo[2,3-b]pyridin-5-yl]-2-(1-hydroxy-1-methyl-ethyl)thiazole] it was less than 1 µM.
The result for `CCN(C)S(=O)(=O)Nc1ccc(F)c(C(=O)c2c[nH]c3ncc(-c4ccc(OC)nn4)cc23)c1F` [P-0317, 3-[3-[[ethyl(methyl)sulfamoyl]amino]-2,6-difluoro-benzoyl]-5-(6-methoxypyridazin-3-yl)-1H-pyrrolo[2,3-b]pyridine] reads less than 1 µM; that for `O=C(c1c(F)ccc(NS(=O)(=O)N2CCCC2)c1F)c1c[nH]c2ncc(-c3cc(N4CCOCC4)ncn3)cc12` [P-0318, N-[2,4-difluoro-3-[5-(6-morpholinopyrimidin-4-yl)-1H-pyrrolo[2,3-b]pyridine-3-carbonyl]phenyl]pyrrolidine-1-sulfonamide], less than 1 µM; that for `O=C(c1cccc(NS(=O)(=O)N2CCCC2)c1F)c1c[nH]c2ncc(-c3cc(N4CCOCC4)ncn3)cc12` [P-0321, N-[2-fluoro-3-[5-(6-morpholinopyrimidin-4-yl)-1H-pyrrolo[2,3-b]pyridine-3-carbonyl]phenyl]pyrrolidine-1-sulfonamide], less than 1 µM.
The result for `CN1CCN(c2cc(-c3cnc4[nH]cc(C(=O)c5cccc(NS(=O)(=O)N6CCCC6)c5F)c4c3)ncn2)CC1` [P-0322, N-[2-fluoro-3-[5-[6-(4-methylpiperazin-1-yl)pyrimidin-4-yl]-1H-pyrrolo[2,3-b]pyridine-3-carbonyl]phenyl]pyrrolidine-1-sulfonamide] reads less than 1 µM.
As to `CN1CCN(c2cccc(-c3cnc4[nH]cc(C(=O)c5cccc(NS(=O)(=O)N6CCCC6)c5F)c4c3)n2)CC1` [P-0324, N-[2-fluoro-3-[5-[6-(4-methylpiperazin-1-yl)-2-pyridyl]-1H-pyrrolo[2,3-b]pyridine-3-carbonyl]phenyl]pyrrolidine-1-sulfonamide], the IC50 is less than 1 µM.
The result for `COc1ccnc(-c2cnc3[nH]cc(C(=O)c4cccc(NS(=O)(=O)N5CCCC5)c4F)c3c2)n1` [P-0325, N-[2-fluoro-3-[5-(4-methoxypyrimidin-2-yl)-1H-pyrrolo[2,3-b]pyridine-3-carbonyl]phenyl]pyrrolidine-1-sulfonamide] reads less than 1 µM; that for `Cc1ccnc(-c2cnc3[nH]cc(C(=O)c4cccc(NS(=O)(=O)N5CCCC5)c4F)c3c2)n1` [P-0326, N-[2-fluoro-3-[5-(4-methylpyrimidin-2-yl)-1H-pyrrolo[2,3-b]pyridine-3-carbonyl]phenyl]pyrrolidine-1-sulfonamide], greater than 1 µM; that for `O=C(c1cccc(NS(=O)(=O)N2CC[C@@H](F)C2)c1F)c1c[nH]c2ncc(-c3cnc(C4CC4)nc3)cc12` [P-0327, (3R)—N-[3-[5-(2-cyclopropylpyrimidin-5-yl)-1H-pyrrolo[2,3-b]pyridine-3-carbonyl]-2-fluoro-phenyl]-3-fluoro-pyrrolidine-1-sulfonamide], less than 1 µM.
The result for `CNS(=O)(=O)Nc1ccc(F)c(C(=O)c2c[nH]c3ncc(-c4cnc(C5CC5)nc4)cc23)c1F` [P-0334, [5-(2-cyclopropylpyrimidin-5-yl)-1H-pyrrolo[2,3-b]pyridin-3-yl]-[2,6-difluoro-3-(methylsulfamoylamino)phenyl]methanone] reads greater than 1 µM; that for `CCNS(=O)(=O)Nc1ccc(F)c(C(=O)c2c[nH]c3ncc(-c4cnc(C5CC5)nc4)cc23)c1F` [P-0335, [5-(2-cyclopropylpyrimidin-5-yl)-1H-pyrrolo[2,3-b]pyridin-3-yl]-[3-(ethylsulfamoylamino)-2,6-difluoro-phenyl]methanone], less than 1 µM; that for `CCC(C)S(=O)(=O)Nc1ccc(F)c(C(=O)c2c[nH]c3ncc(-c4ccc(Cl)cc4)cc23)c1F` (stereo not drawn) [P-0337, N-[3-[5-(4-chlorophenyl)-1H-pyrrolo[2,3-b]pyridine-3-carbonyl]-2,4-difluoro-phenyl]butane-2-sulfonamide], greater than 1 µM.
Consider `O=C(c1c(F)ccc(NS(=O)(=O)N2CC[C@@H](F)C2)c1F)c1c[nH]c2ncc(-c3cnc(C4CC4)nc3)cc12` [P-0338, (3R)—N-[3-[5-(2-cyclopropylpyrimidin-5-yl)-1H-pyrrolo[2,3-b]pyridine-3-carbonyl]-2,4-difluoro-phenyl]-3-fluoro-pyrrolidine-1-sulfonamide], for which the IC50 was less than 1 µM.

Broadly, the IC50 is the midpoint of a concentration-inhibition curve. Higher therefore signals weaker potency in that assay.

(Values after patent US11337976B2 (Plexxikon Inc., priority 2011, dated 2022).)
